Data taken from article PMC4361473, “A New System for Profiling Drug-Induced Calcium Signal Perturbation in Human Embryonic Stem Cell–Derived Cardiomyocytes” (Journal of Biomolecular Screening, 2015).
Like-named read-outs stand apart in the source and are kept apart here.

Key:
Cytiva hSCCMs [1] = test: SALVO profiling of drug-evoked Ca2+ signal perturbation (fluo-4 confocal imaging)
Source text: Cytiva hSCCMs were derived from monolayer differentiation of an H7 hESC cell line that had been expanded under feeder-free conditions and then subjected to a proprietary differentiation protocol (GE Healthcare, Piscataway, NJ, USA).[13] […] Cells were thawed and seeded into 7-mm^2 chambers created by the adherence of silicon gaskets (CultureWell MultiWell 3 mm in diameter, 1-mm-depth inserts [Life Technologies]) on glass-bottomed culture chambers (In Vitro Scientific, Sunnyvale, CA, USA) that had been precoated with Matrigel (BD Biosciences, Franklin Lakes, NJ, USA), Franklin Lakes, NJ, USA diluted 1:30 (v/v) in Knockout DMEM (Life Technologies, Carlsbad, CA, USA). […] Cells were allowed to adhere to the coverslip for 2 h before the dish was filled with RPMI/B27 (2 mL). Medium was exchanged every 48 h.
Cells were incubated with fluo-4 AM (5 µM) (Life Technologies) for 1 h at 37°C before coverslips were flooded with RPMI/B27 (2 mL). […] Cells were maintained at 37 °C throughout experiments. […] The application of caffeine (5 mM final concentration) was used to trigger sarcoplasmic reticulum (SR) Ca^2+ release and thereby estimate the intra-SR Ca^2+ store load.
Taking our lead from Uhlen’s method of using spectral analysis to investigate the organization of Ca^2+ signals,[14] we developed SALVO to decode the spatiotemporal patterning of Ca^2+ oscillations within individual cells and across multicellular populations. SALVO outputs 30 parameters that describe Ca^2+ signal organization,[15] but for the purposes of this study, we focused on five parameters: oscillation rate (rate, Hz) and four other parameters that quantify the amplitude and temporal patterning of Ca^2+ oscillation: (1) amplitude heterogeneity index (AHI) and (2) temporal heterogeneity index (THI), statistical assessments of signal amplitude and temporal variability within single cells, respectively; (3) intertransient noise (ITN), defined as the Ca^2+ signal variability occurring between Ca^2+ oscillations and that extends the use of signal variability (SV) to measure point-by-point differences in very low-amplitude Ca^2+ signals[6],[10],[12]; and (4) synchronization, an index of the temporal coincidence of Ca^2+ oscillation maxima occurring across cells in the population. The calculation of these parameters is described in Supplementary Figure S1. SALVO is implemented using a Python-based computer program.[15] The detection of signal maxima and minima over a 30-s period in data obtained from 6 to 20 cells in each instance was performed using SALVO’s autodetection algorithms (based on spline detect or threshold detection methods) or by manual assignation of the start, peak, and end of each Ca^2+ spike. SALVO outputs were archived and interrogated using a custom-built SQL-based database system (DB Miner, CHG, NCS, SBJ).
Baseline assessments of Ca^2+ signals in fluo-4–loaded cells prior to the addition of drug (control) were established as described above.
After each addition and following a period of equilibration (approximately 90 s), fluo-4–dependent Ca^2+ signals were acquired for 30 s. Using this protocol, the same population of cells was imaged throughout the entire drug addition sequence.
In all experiments, operators were blinded to the identities of the drugs under test throughout all phases of postexperimental data analysis.
Supplementary Table 2. EC20 values for Ca2+ perturbation.
Drug concentrations (nM) that produced a 20% change from control values (no drug) were calculated for each SALVO parameter from regression analysis of […]
The effective therapeutic plasma concentration of free drug (ETPCunbound, nM) was calculated in Supplementary Table 1.
Calculate percentage effect size (E) for each SALVO parameter, normalized to Ew = E x λ control conditions, at each drug concentration Effect size (E,%) λ
Cumulative Ew for drug concentrations of 0.1, 1, 10, 100 and 1000 nM for The relationship between E and λ is given by […]

Cytiva hSCCMs [2] = test: Whole-cell current-clamp recording of spontaneous action potentials (APD90); type: cell-based, human; details: drug at EC20 concentration, 3 min; Fridericia-corrected; blebbistatin-immobilized cells
Experimental: Cells in 35-mm glass-bottomed culture dishes containing a superfusion insert (AutoMate PCP-1; Digitimer Ltd., Welwyn Garden City, UK) were mounted on the stage of an inverted microscope (CKX-41; Olympus, Tokyo, Japan) and were superfused with normal Tyrode (NT) solution (containing [in mM] NaCl, KCl, MgCl2 [1], CaCl2 [2], HEPES [10], glucose; pH 7.4 with NaOH) or NT-containing drugs maintained at 37 °C using a heated jacket.
Cells were whole-cell clamped with 3- to 4-MΩ patches and an intrapipette solution (containing in [mM] KCl, MgCl2 [1.75], CaCl2 [5.37], EGTA [10], HEPES [10], and Na2ATP [4]; pH 7.2 with KOH) in current-clamp (IC) mode using a CV-7B headstage and MultiClamp 700B amplifier controlled by MultiClamp software (Molecular Devices, Sunnyvale, CA). Data were digitized and acquired using a Digidata 1322a card and pClamp software, respectively (Molecular Devices). Action potentials were sampled at a rate of 20 kHz and low pass (Bessel) filtered at 10 kHz.
Spontaneous cell contracture was terminated using blebbistatin (5 µM, 10 min), an agent that inhibits myofilament shortening and thereby negates patch-clamp recording instability but preserves normal Ca^2+ cycling.[20] […] Action potential (AP) recordings from blebbistatin-immobilized cells were taken under control (no-drug) conditions (1 min) and following the switch to drug-containing NT. APD90, corrected for AP cycle length using Fridericia’s method (APD90(corr) = APD90/cycle length^[…]), was calculated from five consecutive APs following a 3-min exposure of the cells to drug.
Figure 4. Investigating the effect of cardiovascular-active drugs on Cytiva APD90. (A) Cells were exposed to drugs at EC20 concentrations for 3 min (Suppl. Table S2). APD90 values were corrected for beat period using Fridericia’s algorithm. Data points represent individual paired experiments (n = 6). Representative control (gray) and drug-treated (black) action potential traces are shown. (B) APD90 plotted as the percentage change relative to the paired control value (no drug). *p < 0.05. **p < 0.01.

[3] = Effective therapeutic plasma concentration (ETPC, ETPCunbound); type: in vivo, human
Source text: There is also the issue regarding the relevance of drug potency determined in vitro to clinical dosing in humans. Guo and colleagues[25],[27] used an impedance-derived index of arrhythmic beating in hSCCMs to derive a predicted proarrhythmic score (PPS) that took into account the therapeutically relevant total concentration of drug in human plasma (defined as Ceff). More recently, Clements and Thomas[13] used a similar approach to generate a predictive risk score (PRS) based on their measurement of field potential duration (FPD) in Cytiva.
Supplementary Table 1. Calculating the free plasma concentration of […]
described by Redfern et al. (Redfern et al. (2003) Cardiovasc. Res. 58:32-45) was used to calculate the levels of free drug (ETPCunbound). ETPC for nadolol and valdecoxib were from Krukemyer et al. (Pharm. Res. (1990) 9:953-956) and Yuan et al. (Drug Metab. Disp. (2002) 30:1013-1021), respectively. The values for drug-protein binding were obtained from DrugBank (www.drugbank.ca).

[4] = maximal effective therapeutic plasma concentration, cited from earlier work
[5] = parameters: method as in DrugBank (www.drugbank.ca); details: from drug-protein binding values; ref DrugBank (www.drugbank.ca); cited from earlier work
[6] = categories assigned by Redfern and colleagues; cited from earlier work
hSCCM = tested on: hSCCM; parameters: method as in PMID 24052561; details: cited from earlier work
[7] = 20% change from control in amplitude heterogeneity index, regression of Figure 3 data
[8] = 20% change from control in intercellular synchronization, regression of Figure 3 data
[9] = 20% change from control in intertransient noise, regression of Figure 3 data
[10] = 20% change from control in temporal heterogeneity index, regression of Figure 3 data
[11] = drug concentration producing a 20% change from control (no drug) in Ca2+ oscillation rate, regression of Figure 3 data
[12] = five-parameter SALVO output integrated over 0.1-1000 nM, normalized to control
[13] = spontaneously oscillating Cytiva, concentrations up to 30 µM
[14] = free plasma concentration calculated from ETPC and free drug %, Supplementary Table 1
[15] = ref Redfern et al. (2003) Cardiovasc. Res. 58:32-45

Structure (SMILES) | EC20 AHI (Cytiva hSCCMs [1]; [7]) [nM] | EC20 Synch (Cytiva hSCCMs [1]; [8]) [nM] | EC20 ITN (Cytiva hSCCMs [1]; [9]) [nM] | EC20 THI (Cytiva hSCCMs [1]; [10]) [nM] | EC20 Rate (Cytiva hSCCMs [1]; [11]) [nM] | SALVO toxicity score, rank order of the extent of Ca2+ perturbation (Cytiva hSCCMs [1]; [12]) | Effect on Ca2+ handling (SALVO parameters) (Cytiva hSCCMs [1]; [13]) | Effect on APD90 (action potential duration) (Cytiva hSCCMs [2]) | ETPCunbound [3, 14] [nM] | ETPC [4, 15] [nM] | Free drug [5] [%] | TdP risk category [6] | other results
COc1ccc(CCN2CCC(Nc3nc4ccccc4n3Cc3ccc(F)cc3)CC2)cc1 [Astemizole, astemizole] | 100 | 15 | 320 | 55 | 50 | astemizole > thioridazine > cisapride > flecainide > valdecoxib > sotalol > nadolol | large effect sizes in multiple parameters | increased APD90 | 0.2 | 8 | 2 | category 2 | Predicted proarrhythmic score (PPS) (Cytiva hSCCMs [1]; PPS = ETPCunbound/EC20): < 1; ETPCunbound ([3]; effective therapeutic plasma concentration of free drug, as listed in Supplementary Table 2): 8 nM
COc1cc(N)c(Cl)cc1C(=O)NC1CCN(CCCOc2ccc(F)cc2)CC1OC (centres unmarked) [Cisapride, cisapride] | 40 | 5 | > 30000 | 105 | 445 | astemizole > thioridazine > cisapride > flecainide > valdecoxib > sotalol > nadolol | large effect sizes in multiple parameters | increased APD90 | 3 | 129 | 2 | category 2 | PPS rank order (Cytiva hSCCMs [1]; PPS = ETPCunbound/EC20): thioridazine > cisapride > valdecoxib
Cc1onc(-c2ccccc2)c1-c1ccc(S(N)(=O)=O)cc1 [Valdecoxib, valdecoxib] | – | – | – | – | – | – | – | no effect | 45 | – | 2 | – | EC20 AHI (Cytiva hSCCMs [1]): 685 nM; EC20 ITN (Cytiva hSCCMs [1]): > 30000 nM; EC20 Rate (Cytiva hSCCMs [1]): 9870 nM; EC20 Synch (Cytiva hSCCMs [1]): > 30000 nM; EC20 THI (Cytiva hSCCMs [1]): 12800 nM; Effect on Ca2+ handling (SALVO parameters) (Cytiva hSCCMs [1]): large effect sizes in multiple parameters; PPS rank order (Cytiva hSCCMs [1]): thioridazine > cisapride > valdecoxib; SALVO toxicity score, rank order of the extent of Ca2+ perturbation (Cytiva hSCCMs [1]): astemizole > thioridazine > cisapride > flecainide > valdecoxib > sotalol > nadolol; ETPC ([4]; ref Yuan et al. (Drug Metab. Disp. (2002) 30:1013-1021)): 2257 nM
CS(=O)(=O)c1ccc(C2=C(c3ccccc3)C(=O)OC2)cc1 [rofecoxib] | – | – | – | – | – | – | inconsistent bioactivity | – | – | – | – | – | Hazard identification by impedance measurements (hSCCM): failed to identify the potential hazard
